These results are taken from patent publication US11504340B2, “Ocular compositions” (THE QUEEN'S UNIVERSITY OF BELFAST, priority 2017, dated 2022).

This data set in a line: Stability of dexamethasone in phosphate buffer for long term release. Format: physicochemical.

Take `C[C@@H]1C[C@H]2[C@@H]3CCC4=CC(=O)C=C[C@]4(C)[C@@]3(F)[C@@H](O)C[C@]2(C)[C@@]1(O)C(=O)CO` [dexamethasone]: the “stability in phosphate buffer for long term release” value is “instability”.
